Experiments:
Assay type in all cases: in vivo
[1] = test system: corn plants, 111 day, central corn belt variety; assay: Corn plant chilling (growth rate); conditions: for Growth Rate, Greenhouse 7-9 d post spray / Growth Rate, Greenhouse 0-2 d post spray / Growth Rate, Growth Chamber 10° C. 2-7 d post spray: foliar spray 1000 mg/l (113.7 g/acre); for Growth Rate, Greenhouse 7-9 d post spray: after chilling; for Growth Rate, Greenhouse 0-2 d post spray: before chilling; for Growth Rate, Growth Chamber 10° C. 2-7 d post spray: during chilling at 10° C.
Procedure: Corn seeds of a 111 day, central corn belt variety were planted in 2-quart pots filled with medium. After the corn grew for 10 days in the greenhouse at 24±3° C. (V2 to V3 growth stage), the plants received a foliar spray application of aqueous solutions of the test compounds containing 0.25% non-ionic surfactant with a volume equivalent to 30 gallons/acre. After spraying, plants were moved back to the greenhouse for 2 days, then moved to a growth chamber kept at 10° C. with a 16:8 light:dark cycle (cold treatment). After 5 days in the cold, plants were returned to the greenhouse for 2 days before being harvested destructively. Results of the studies comparing the growth rate of plants treated with S-ABA with 3′-methyl-(S)-ABA during the experiment are shown in Table 3. In additional studies, the effect of S-ABA and 3′-propargyl-(S)-ABA on corn growth rate in chilling studies was compared.

[2] = test system: corn plants, commercial 111 day, central corn belt variety; assay: Corn stomatal conductance; conditions: for Average Stomatal Conductance (% of Control), 6 DAS: 6 days after spraying; for Average Stomatal Conductance (% of Control), 16 DAS: 16 days after spraying
Procedure: (§1) In this greenhouse experiment, foliar spray treatments containing 3′-methyl-(S)-abscisic acid, 3′-propargyl-(S)-abscisic acid or (S)-abscisic acid were applied to corn plants to evaluate their effect on gas exchange, as measured through stomatal conductance. Corn plants of a commercial, 111 day, central corn belt variety were grown in the greenhouse under optimal conditions for five weeks and were size-matched into ten groups of five plants. Using an aerosol sprayer, each group was sprayed to drip (25 milliliters per plant) with solutions containing a non-ionic surfactant (0.125%, v/v) and water (control), 2.5 mg, 7.5 mg or 25 mg/plant 3′-methyl-(S)-abscisic acid, or 2.5 mg, 7.5 mg or 25 mg/plant 3′-propargyl-(S)-abscisic acid, or 7.5 mg, 25 mg or 75 mg/plant (5)-ABA, respectively. After spraying, plants were returned to the greenhouse for the duration of the experiment. Stomatal conductance was measured using an AP4 porometer (Delta T Devices, Cambridge, UK) and the conductance for each plant was recorded at approximately the same time of day (˜10 AM) prior to treatment application as well as 1, 2, 5, 6, 9 and 16 days post-spraying.

[3] = test system: corn plants, commercial 111 day, central corn belt variety; assay: Corn plant leaf rolling assay and shoot fresh weight under drought; conditions: for Shoot Fresh Weight, 15 DAS: 12 days drought then 3 days watering; for Average # of Rolled Leaves/Plant, 5 DAS / Average # of Rolled Leaves/Plant, 6 DAS / Average # of Rolled Leaves/Plant, 8 DAS: water withheld; for Average # of Rolled Leaves/Plant, 5 DAS: 5 days after spraying; for Average # of Rolled Leaves/Plant, 6 DAS: 6 days after spraying; for Average # of Rolled Leaves/Plant, 8 DAS: 8 days after spraying
Procedure: as §1, with “post-spraying. This study was conducted as described above with the following the exceptions. After spraying, plants were put back in the greenhouse and water was withheld for twelve days, simulating drought stress. The plants were then watered to saturation for three consecutive days before the plant shoots were cut at the soil surface and subsequently weighed in grams (fresh weight). Leaf-rolling data and fresh weight data were recorded for each plant following treatment application at the times specified below in Table 6.” for “post-spraying.”

soybean plants = assay: Soybean drought tolerance (stomatal conductance)
Procedure: In this study, soybean plants were grown for 10 days under ambient lab temperature conditions and illumination of 150 umol m^2 s^−1 and a 16:8 photoperiod. At spraying, the primary leaves were fully expanded and the first trifoliate leaves were partially expanded. The plants were sprayed to dampness with solutions of water, S-ABA, 3′-methyl-(S)-abscisic acid, or 3′-propargyl-(S)-abscisic acid containing 0.025% (v/v) non-ionic surfactant. At times following spraying, the conductance of the primary leaves was measured using an AP4 porometer (Delta T Devices, Cambridge, UK) to evaluate the effect on stomatal conductance. A decrease in stomatal aperture, reflected in the conductance measures, is an immediate and direct effect of applied S-ABA. To simplify the data, the controls were always set to 100%. In Table 9, the effect of spray applications on the stomatal conductance was measured.

[4] = foliar spray 300 ppm or 7.5 mg/plant
[5] = foliar spray 1000 ppm or 25 mg/plant
[6] = foliar spray 3000 ppm or 75 mg/plant
[7] = foliar spray 300 mg/l, 0.3 mg/plant
[8] = foliar spray 1000 mg/l, 1.0 mg/plant

Structure (SMILES): CC1=CC(=O)CC(C)(C)[C@@]1(O)/C=C/C(C)=C/C(=O)O [S-ABA, (S)-abscisic acid]
- Growth during stress recovery following cold ([1]; 3′-propargyl-(S)-ABA particularly between 11.4 and 113.7 g/acre, S-ABA at rates up to 1000 mg/liter (113.7 g/acre)): did not aid recovery growth
- Maintenance of growth under cold (10° C.) conditions ([1]; S-ABA even at 1000 mg/l (113.7 g/acre)): did not maintain growth
- Growth Rate, Greenhouse 7-9 d post spray ([1]; Table 3 study): 3.270 cm/day
- Growth Rate, Greenhouse 0-2 d post spray ([1]; Table 3 study): 4.315 cm/day
- Growth Rate, Growth Chamber 10° C. 2-7 d post spray ([1]; Table 3 study): 0.766 cm/day
- Growth Rate, Greenhouse 7-9 d post spray ([1]; Table 4 study): 2.161 cm/day
- Growth Rate, Greenhouse 0-2 d post spray ([1]; Table 4 study): 3.156 cm/day
- Growth Rate, Growth Chamber 10° C. 2-7 d post spray ([1]; Table 4 study): 1.249 cm/day
- Leaf area ([1]; in one of two studies, not repeatable across studies, 3′-methyl-(S)-abscisic acid at 30, 100 and 300 mg/liter): increased
- Average Stomatal Conductance (% of Control), 6 DAS [2, 4]: 88.5 % of Control
- Average Stomatal Conductance (% of Control), 16 DAS [2, 4]: 89.3 % of Control
- Average Stomatal Conductance (% of Control), 6 DAS [2, 5]: 83.7 % of Control
- Average Stomatal Conductance (% of Control), 16 DAS [2, 5]: 88.0 % of Control
- Average Stomatal Conductance (% of Control), 6 DAS [2, 6]: 61.3 % of Control
- Average Stomatal Conductance (% of Control), 16 DAS [2, 6]: 62.5 % of Control
- Shoot Fresh Weight, 15 DAS ([3]; 300 ppm or 7.5 mg/plant): 258.9 grams
- Average # of Rolled Leaves/Plant, 5 DAS ([3]; 300 ppm or 7.5 mg/plant): 2.8
- Average # of Rolled Leaves/Plant, 6 DAS ([3]; 300 ppm or 7.5 mg/plant): 2.6
- Average # of Rolled Leaves/Plant, 8 DAS ([3]; 300 ppm or 7.5 mg/plant): 8.4
- Shoot Fresh Weight, 15 DAS ([3]; 1000 ppm or 25 mg/plant): 282.5 grams
- Average # of Rolled Leaves/Plant, 5 DAS ([3]; 1000 ppm or 25 mg/plant): 1.2
- Average # of Rolled Leaves/Plant, 6 DAS ([3]; 1000 ppm or 25 mg/plant): 3.0
- Average # of Rolled Leaves/Plant, 8 DAS ([3]; 1000 ppm or 25 mg/plant): 8.8
- Shoot Fresh Weight, 15 DAS ([3]; 3000 ppm or 75 mg/plant): 301.7 grams
- Average # of Rolled Leaves/Plant, 5 DAS ([3]; 3000 ppm or 75 mg/plant): 0.0
- Average # of Rolled Leaves/Plant, 6 DAS ([3]; 3000 ppm or 75 mg/plant): 0.2
- Average # of Rolled Leaves/Plant, 8 DAS ([3]; 3000 ppm or 75 mg/plant): 7.2
- Effectiveness at reducing leaf rolling ([3]; S-ABA 75 mg/plant compared with 25 mg of the derivatives): as effective at reducing leaf rolling as 25 mg of 3′-methyl-(S)-abscisic acid, or 3′-propargyl-(S)-abscisic acid
- Reduction in stomatal conductance at 1 day post spraying (soybean plants; 300 mg/l foliar spray): 58%
- Time of 50% recovery of the control conductance (soybean plants; 300 mg/l foliar spray): ≤ 2 days
- Time of greater than 50% recovery of the control conductance (soybean plants; 1000 mg/l foliar spray): 5 days
- Percent Conductance (stomatal conductance, control = 100%), Day 1 (soybean plants; [7]): 42%
- Percent Conductance (stomatal conductance, control = 100%), Day 2 (soybean plants; [7]): 56%
- Percent Conductance (stomatal conductance, control = 100%), Day 5 (soybean plants; [7]): 80%
- Percent Conductance (stomatal conductance, control = 100%), Day 6 (soybean plants; [7]): 108%
- Percent Conductance (stomatal conductance, control = 100%), Day 7 (soybean plants; [7]): 122%
- Percent Conductance (stomatal conductance, control = 100%), Day 1 (soybean plants; [8]): 27%
- Percent Conductance (stomatal conductance, control = 100%), Day 2 (soybean plants; [8]): 32%
- Percent Conductance (stomatal conductance, control = 100%), Day 5 (soybean plants; [8]): 58%
- Percent Conductance (stomatal conductance, control = 100%), Day 6 (soybean plants; [8]): 80%
- Percent Conductance (stomatal conductance, control = 100%), Day 7 (soybean plants; [8]): 118%
